{"source": "patent US6677276B1", "about": "“Herbicides for tolerant or resistant oil seed rape cultures” (Aventis CropScience GmbH, priority 1998, dated 2004)", "key": {"[1]": {"tested_on": "Chenopodium album", "experiment": "Field trial, herbicidal action (Table 5)", "type": "in vivo", "settings": "application in the 4-leaf stage, scoring 15 days after application", "protocol": "(§1) Transgenic oil-seed rape plants with resistance to one or more herbicides (A) were grown together with typical weed plants in the open in 2×5 m plots under natural field conditions; alternatively, the weed population established naturally while the oil-seed rape plants grew. Treatment with the compositions according to the invention and, for control purposes, with separate application of the active ingredients of the components alone, was carried out under standard conditions with a plot sprayer at an application rate of 200-300 liters of water per hectare in parallel trials in accordance with the scheme of Table 1, i.e. pre-sowing/pre-emergence, post-sowing/-pre-emergence or post-emergence at the early, medium or late stage.\n(§2) At 2, 4, 6 and 8 week intervals after application, the herbicidal activity of the active ingredients or active ingredient mixtures were scored visually by comparing the treated plots with untreated control plots. Damage and development of all aerial plant organs was recorded. The scoring was done using a percentage scale (100% activity=all plants dead; 50% activity=50% of the plants and green plant organs dead; 0% activity=no discernible effect=like control plot). The score values of in each case 4 plots were averaged."}, "[2]": {"tested_on": "Cirsium arvense", "experiment": "Field trial, herbicidal action (Table 5)", "type": "in vivo", "settings": "application in the 4-leaf stage, scoring 15 days after application", "protocol": "as §1, §2"}, "[3]": {"tested_on": "Oil-seed rape LL", "experiment": "Field trial, crop plant tolerance", "type": "in vivo, Liberty-Link oil-seed rape", "settings": "crop damage", "protocol": "Transgenic oil-seed rape plants with resistance to one or more herbicides (A) were grown together with typical weed plants in the open in 2×5 m plots under natural field conditions; alternatively, the weed population established naturally while the oil-seed rape plants grew.\nDamage and development of all aerial plant organs was recorded. […] The score values of in each case 4 plots were averaged."}, "[4]": {"tested_on": "Datura stramonium", "experiment": "Oil-seed rape field trial, herbicidal action (Table 2)", "type": "in vivo", "settings": "application in the 5-leaf stage, scoring 3 weeks after application", "protocol": "as §1\n[…] Damage and development of all aerial plant organs was recorded. The scoring was done using a percentage scale (100% activity=all plants dead; 50% activity=50% of the plants and green plant organs dead; 0% activity=no discernible effect=like control plot). The score values of in each case 4 plots were averaged."}, "[5]": {"tested_on": "Matricaria chamomita", "experiment": "Field trial, herbicidal action (Table 4)", "type": "in vivo", "settings": "post-emergence application in the 4-leaf stage, scoring 28 days after post-emergence application", "protocol": "as §1, §2"}, "[6]": {"tested_on": "Galium aparine", "experiment": "Oil-seed rape field trial, herbicidal action (Table 3)", "type": "in vivo", "settings": "application in the 4-5 leaf stage, scoring 36 days after application", "protocol": "as §1, §2"}}, "note": "Where a name gives a salt, the structure may show the parent alone.", "data": [{"smiles": "O=C(O)c1nc(Cl)ccc1Cl", "note": "[(B2.2), 3,6-dichloropyridine-2-carboxylic acid]", "values": [{"measurement": "Herbicidal action (%) against Chenopodium album", "setting": "[1]; 90 g of A.S./ha", "result": 50, "unit": "%"}, {"measurement": "Herbicidal action (%) against Cirsium arvense", "setting": "[2]; 90 g of A.S./ha", "result": 85, "unit": "%"}, {"measurement": "Oil-seed rape LL", "setting": "[3]; 90 g of A.S./ha, 4-leaf stage, scoring 15 days after application", "result": 0, "unit": "%"}]}, {"smiles": "CP(=O)(O)CCC(N)C(=O)O", "note": "(stereo not shown) [(A1.2), glufosinate monoammonium salt]", "values": [{"measurement": "Herbicidal action (%) against Datura stramonium", "setting": "[4]; 600 g of A.S./ha", "result": 90, "unit": "%"}, {"measurement": "Herbicidal action (%) against Chenopodium album", "setting": "[1]; 230 g of A.S./ha", "result": 90, "unit": "%"}, {"measurement": "Herbicidal action (%) against Cirsium arvense", "setting": "[2]; 230 g of A.S./ha", "result": 85, "unit": "%"}, {"measurement": "Herbicidal action (%) against Cirsium arvense", "setting": "[2]; 350 g of A.S./ha", "result": 97, "unit": "%"}, {"measurement": "Herbicidal action % against Matricaria chamomita", "setting": "[5]; 125 g of A.S./ha", "result": 10, "unit": "%"}, {"measurement": "Herbicidal action % against Matricaria chamomita", "setting": "[5]; 250 g of A.S./ha", "result": 35, "unit": "%"}, {"measurement": "Herbicidal action % against Matricaria chamomita", "setting": "[5]; 500 g of A.S./ha", "result": 65, "unit": "%"}, {"measurement": "Herbicidal action (%) against Galium aparine", "setting": "[6]; 125 g of A.S./ha", "result": 15, "unit": "%"}, {"measurement": "Herbicidal action (%) against Galium aparine", "setting": "[6]; 250 g of A.S./ha", "result": 41, "unit": "%"}, {"measurement": "Herbicidal action (%) against Galium aparine", "setting": "[6]; 500 g of A.S./ha", "result": 63, "unit": "%"}, {"measurement": "Oil-seed rape LL", "setting": "[3]; 125 g of A.S./ha, 4-5 leaf stage, scoring 36 days after application", "result": 0, "unit": "%"}, {"measurement": "Oil-seed rape LL", "setting": "[3]; 230 g of A.S./ha, 4-leaf stage, scoring 15 days after application", "result": 0, "unit": "%"}, {"measurement": "Oil-seed rape LL", "setting": "[3]; 250 g of A.S./ha, 4-5 leaf stage, scoring 36 days after application", "result": 0, "unit": "%"}, {"measurement": "Oil-seed rape LL", "setting": "[3]; 350 g of A.S./ha, 4-leaf stage, scoring 15 days after application", "result": 0, "unit": "%"}, {"measurement": "Oil-seed rape LL", "setting": "[3]; 500 g of A.S./ha, 4-5 leaf stage, scoring 36 days after application", "result": 3, "unit": "%"}]}, {"smiles": "Cc1cnc2c(C(=O)O)c(Cl)ccc2c1", "note": "[(B2.1), 7-chloro-3-methylquinoline-8-carboxylic acid]", "values": [{"measurement": "Herbicidal action % against Matricaria chamomita", "setting": "[5]; 300 g of A.S./ha", "result": 50, "unit": "%"}]}, {"smiles": "Cc1cccc(C)c1N(Cn1cccn1)C(=O)CCl", "note": "[(B1.1), 2-chloro-N-(2,6-dimethylphenyl)-N-(1H-pyrazol-1-ylmethyl)acetanilide]", "values": [{"measurement": "Herbicidal action (%) against Datura stramonium", "setting": "[4]; 600 g of A.S./ha", "result": 40, "unit": "%"}, {"measurement": "Herbicidal action (%) against Datura stramonium", "setting": "[4]; 1200 g of A.S./ha", "result": 93, "unit": "%"}]}, {"smiles": "CCCCCCCCSC(=O)Oc1cc(Cl)nnc1-c1ccccc1", "note": "[(B2.3), O-(6-chloro-3-phenylpyridazin-4-yl) S-octyl thiocarbonate]", "values": [{"measurement": "Herbicidal action % against Matricaria chamomita", "setting": "[5]; 600 g of A.S./ha", "result": 60, "unit": "%"}]}, {"smiles": "CCOc1nc(NC)nc(NC(=O)NS(=O)(=O)c2ccccc2C(=O)OC)n1", "note": "[(B2.4), methyl 2-{N-[N-(4-ethyox-6-methylamino-1,3,5-triazin-2-yl)aminocarbonyl]aminosulfonyl}benzoate]", "values": [{"measurement": "Herbicidal action (%) against Chenopodium album", "setting": "[1]; 15 g of A.S./ha", "result": 30, "unit": "%"}, {"measurement": "Herbicidal action (%) against Cirsium arvense", "setting": "[2]; 15 g of A.S./ha", "result": 0, "unit": "%"}, {"measurement": "Oil-seed rape LL", "setting": "[3]; 15 g of A.S./ha, 4-leaf stage, scoring 15 days after application", "result": 0, "unit": "%"}]}]}
